Measured values published in patent US7582678B2, “Use of branched-chain fatty acids and derivatives thereof for the treatment of pain” (D-PHARM Limited, priority 1998, dated 2009).
Marks after values point to notes of the source that are not given here.

Experiments:
Male CD-1 mice = assay: Tail flick assay (radiated heat, acute pain) in mice; conditions: for size of analgesic effect, ranking among tested compounds: tail flick, Table 1;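 for all read-outs here: infrared heat aimed at the tail of restrained mice, time until tail flick recorded as mean of 2-3 readings, 4-8 animals per group, compared with vehicle-treated animals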
Procedure: The analgesic effect of branched-chain fatty acids (BFAs) and their DP-BFAs derivatives was tested by using the tail flick assay in mice.
This model uses radiated infrared (IR) heat source that is directed to the tail of a restrained mouse. The threshold of tolerance for heat is indicated by a time-meter, which is stopped instantaneously when the tail flicks. This time is defined as ‘withdrawal latency’.
Male CD-1 mice weighing around 25-30 grams (4-8 animals per each dose of the tested compound) were used. The animals were put in clear plastic cages above an IR source (7371-Plantar™ Analgesia Instrument, UGO Basile), where the IR generator is placed directly underneath the tail of the mouse and the light beam is focused on the proximal third of the tail.
The withdrawal latency, namely the time interval from the starting of the infrared radiation until the animal feels pain and flicks its tail is determined. The initial withdrawal latency for each animal was measured at t=0 and was determined as its baseline threshold.
In order to determine the analgesic effect of a tested drug, the drug (10 to 200 mg/kg body weight) was administered to mice either orally (p.o.) or by intraperitoneal (i.p.) or subcutaneous (s.c.) injection. Withdrawal latency was determined at different time points post-administration of the drug as indicated. Each reading was performed 2-3 times and the mean-value was calculated. […] The withdrawal latency at each time point post injection is the average of 4-8 animals per group. […] Paired T-test was used to assess significance in comparison to the baseline value (t=0). Morphine was used as a positive control (2 animals per dose).

[1] = I.P., 50 mg/kg, 15 min post-injection
[2] = I.P., 50 mg/kg, 45 min post-injection
[3] = I.P., 50 mg/kg, 75 min post-injection
[4] = I.P., 50 mg/kg, 105 min post-injection
[5] = I.P., 50 mg/kg, 135 min post-injection
[6] = I.P., 50 mg/kg, 285 min post-injection
[7] = I.P., 50 mg/kg, 345 min post-injection
[8] = I.P., 100 mg/kg, 15 min post-injection
[9] = I.P., 100 mg/kg, 45 min post-injection
[10] = I.P., 100 mg/kg, 75 min post-injection
[11] = I.P., 100 mg/kg, 105 min post-injection
[12] = I.P., 100 mg/kg, 135 min post-injection
[13] = I.P., 100 mg/kg, 285 min post-injection
[14] = I.P., 100 mg/kg, 345 min post-injection
[15] = I.P., 200 mg/kg, 15 min post-injection
[16] = I.P., 200 mg/kg, 45 min post-injection
[17] = I.P., 200 mg/kg, 105 min post-injection
[18] = I.P., 200 mg/kg, 75 min post-injection
[19] = I.P., 200 mg/kg, 135 min post-injection

Row | Structure (SMILES) | Withdrawal latency (% of vehicle) (Male CD-1 mice; [1]) | Withdrawal latency (% of vehicle) (Male CD-1 mice; [2]) | Withdrawal latency (% of vehicle) (Male CD-1 mice; [3]) | Withdrawal latency (% of vehicle) (Male CD-1 mice; [4]) | Withdrawal latency (% of vehicle) (Male CD-1 mice; [5]) | Withdrawal latency (% of vehicle) (Male CD-1 mice; [8]) | Withdrawal latency (% of vehicle) (Male CD-1 mice; [9]) | Withdrawal latency (% of vehicle) (Male CD-1 mice; [10]) | Withdrawal latency (% of vehicle) (Male CD-1 mice; [11]) | Withdrawal latency (% of vehicle) (Male CD-1 mice; [12]) | Withdrawal latency (% of vehicle) (Male CD-1 mice; [15]) | Withdrawal latency (% of vehicle) (Male CD-1 mice; [16]) | Withdrawal latency (% of vehicle) (Male CD-1 mice; [17]) | also measured
1 | CCCCCCCC(CCCCCCC)OP(=O)(O)O [(7,7)-PO4, 8-Pentadecanyl Phosphate] | – | – | – | – | – | – | – | – | – | – | – | – | – | Withdrawal latency (% of vehicle) (Male CD-1 mice; P.O., 200 mg/kg, 45 min post-administration): 93% of vehicle; Withdrawal latency (% of vehicle) (Male CD-1 mice; P.O., 200 mg/kg, 75 min post-administration): 94% of vehicle; Withdrawal latency (% of vehicle) (Male CD-1 mice; P.O., 200 mg/kg, 105 min post-administration): 124% of vehicle; Withdrawal latency (% of vehicle) (Male CD-1 mice; P.O., 200 mg/kg, 135 min post-administration): 133% of vehicle; Withdrawal latency (% of vehicle) (Male CD-1 mice; P.O., 200 mg/kg, 285 min post-administration): 162% of vehicle; Withdrawal latency (% of vehicle) (Male CD-1 mice; P.O., 200 mg/kg, 345 min post-administration): 129% of vehicle
2 | CCCCCCCCCCCCCCCCCC(=O)OC[C@H](COP(=O)([O-])OCC[N+](C)(C)C)OC(=O)C(CCC)CCCCCCC (stereo partly shown) [DP-M(3,7), 1-O-stearoyl-2-propylnonayl-sn-glycero-3-phosphocholine] | 132% of vehicle | 123% of vehicle | 119% of vehicle | 102% of vehicle | 112% of vehicle | 127% of vehicle | 156% of vehicle | 124% of vehicle | 114% of vehicle | 126% of vehicle | – | – | – | Withdrawal latency (% of vehicle) (Male CD-1 mice; [6]): 119% of vehicle; Withdrawal latency (% of vehicle) (Male CD-1 mice; [7]): 114% of vehicle; Withdrawal latency (% of vehicle) (Male CD-1 mice; [13]): 127% of vehicle; Withdrawal latency (% of vehicle) (Male CD-1 mice; [14]): 125% of vehicle
3 | CCCCCCCCCCCCCCCCCC(=O)OC[C@H](COP(=O)([O-])OCC[N+](C)(C)C)OC(=O)C(CCC)CCCCCCCCCC (stereo partly shown) [DP-M(3,10), 1-O-stearoyl-2-propyldodecanoyl-sn-glycero-3-phosphocholine] | 123% of vehicle | 119% of vehicle | 113% of vehicle | 123% of vehicle | 123% of vehicle | – | – | – | – | – | – | – | – | Withdrawal latency (% of vehicle) (Male CD-1 mice; [6]): 129% of vehicle; Withdrawal latency (% of vehicle) (Male CD-1 mice; [7]): 107% of vehicle
4 | CCCCCCCCCCCCCCCCCC(=O)OC[C@H](COP(=O)([O-])OCC[N+](C)(C)C)OC(=O)C(CCCCC)CCCCC [DP-M(5,5), 1-O-stearoyl-2-pentylheptonayl-sn-glycero-3-phosphocholine] | 113% of vehicle | 107% of vehicle | 118% of vehicle | 142% of vehicle | 152% of vehicle | 148% of vehicle | 143% of vehicle | 148% of vehicle | 162% of vehicle | 171% of vehicle | – | – | – | Withdrawal latency (% of vehicle) (Male CD-1 mice; [6]): 121% of vehicle; Withdrawal latency (% of vehicle) (Male CD-1 mice; [7]): 124% of vehicle; Withdrawal latency (% of vehicle) (Male CD-1 mice; [13]): 155% of vehicle; Withdrawal latency (% of vehicle) (Male CD-1 mice; [14]): 124% of vehicle; dose dependence of analgesic effect (Male CD-1 mice; i.p. 25, 50, 100 mg/kg (FIG. 1)): dose dependent; size of analgesic effect, ranking among tested compounds (Male CD-1 mice): largest analgesic effects
5 | CCCCCCCC(CCC)C(=O)O (stereo not shown) [M(3,7), 2-Propylnonanoic acid] | – | – | – | – | – | – | – | – | – | – | – | – | – | Withdrawal latency (% of vehicle) (Male CD-1 mice; I.P., 150 mg/kg, 15 min post-injection): 157% of vehicle; Withdrawal latency (% of vehicle) (Male CD-1 mice; I.P., 150 mg/kg, 45 min post-injection): 137% of vehicle; Withdrawal latency (% of vehicle) (Male CD-1 mice; I.P., 150 mg/kg, 75 min post-injection): 106% of vehicle; Withdrawal latency (% of vehicle) (Male CD-1 mice; I.P., 150 mg/kg, 105 min post-injection): 131% of vehicle
6 | CCCCCCCCCCC(CCC)C(=O)O (stereo not shown) [M(3,10), 2-Propyldodecanoic acid] | – | – | – | – | – | 142% of vehicle | 155% of vehicle | 131% of vehicle | 156% of vehicle | 123% of vehicle | 186% of vehicle | 210% of vehicle | 183% of vehicle | size of analgesic effect, ranking among tested compounds (Male CD-1 mice): largest analgesic effects
7 | CCCCCCCCCCC(CCC)C(=O)O (stereo not shown) [M(3,10)—Na, 2-Propyldodecanoic acid] | 151% of vehicle | 138% of vehicle | 128% of vehicle | 123% of vehicle | 102% of vehicle | 181% of vehicle | 153% of vehicle | 121% of vehicle | 143% of vehicle | 148% of vehicle | 158% of vehicle | 220% of vehicle | 141% of vehicle | Withdrawal latency (% of vehicle) (Male CD-1 mice; [18]): 216% of vehicle; Withdrawal latency (% of vehicle) (Male CD-1 mice; [19]): 175% of vehicle
8 | CCCCCCCCCCCCCCCCCCC(CCC)C(=O)O (stereo not shown) [M(3,18), 2-Propyleicosanoic acid] | – | – | – | – | – | – | – | – | – | – | – | – | – | melting point: 55.6 to 57.4 °C
9 | CCCCCC(CCCCC)C(=O)O [M(5,5), 2-Pentylheptanoic acid] | – | – | – | – | – | – | – | – | – | – | 161% of vehicle | 135% of vehicle | 158% of vehicle | Withdrawal latency (% of vehicle) (Male CD-1 mice; [18]): 145% of vehicle; size of analgesic effect, ranking among tested compounds (Male CD-1 mice): largest analgesic effects
10 | CCCCCC(CCCCC)C(=O)O [M(5,5)—Na, 2-Pentylheptanoic acid] | 115% of vehicle | 124% of vehicle | 117% of vehicle | 134% of vehicle | – | 137% of vehicle | 164% of vehicle | 164% of vehicle | 193% of vehicle | – | – | – | – | –
11 | CCCCCCCC(CCCCCCC)C(=O)O [M(7,7), 2-Heptylnonanoic acid] | – | – | – | – | – | – | – | – | – | – | 93% of vehicle | 124% of vehicle | 149% of vehicle | Withdrawal latency (% of vehicle) (Male CD-1 mice; [18]): 117% of vehicle; Withdrawal latency (% of vehicle) (Male CD-1 mice; [19]): 124% of vehicle
12 | CN1CC[C@]23c4c5ccc(O)c4O[C@H]2[C@@H](O)C=C[C@H]3[C@H]1C5 [Morphine, reference compound] | – | – | – | – | – | – | – | – | – | – | – | – | – | Withdrawal latency (% of vehicle) (Male CD-1 mice; I.P., 1 mg/kg, 15 min post-injection): 97% of vehicle; Withdrawal latency (% of vehicle) (Male CD-1 mice; I.P., 1 mg/kg, 45 min post-injection): 136% of vehicle; Withdrawal latency (% of vehicle) (Male CD-1 mice; I.P., 1 mg/kg, 75 min post-injection): 207% of vehicle; Withdrawal latency (% of vehicle) (Male CD-1 mice; I.P., 1 mg/kg, 105 min post-injection): 179% of vehicle; Withdrawal latency (% of vehicle) (Male CD-1 mice; I.P., 1 mg/kg, 255 min post-injection): 142%** % of vehicle; Withdrawal latency (% of vehicle) (Male CD-1 mice; I.P., 10 mg/kg, 15 min post-injection): 139% of vehicle; Withdrawal latency (% of vehicle) (Male CD-1 mice; I.P., 10 mg/kg, 45 min post-injection): 171% of vehicle; Withdrawal latency (% of vehicle) (Male CD-1 mice; I.P., 10 mg/kg, 75 min post-injection): 284% of vehicle; Withdrawal latency (% of vehicle) (Male CD-1 mice; I.P., 10 mg/kg, 105 min post-injection): 238% of vehicle; Withdrawal latency (% of vehicle) (Male CD-1 mice; I.P., 10 mg/kg, 255 min post-injection): 151%** % of vehicle
